Each structure is given as a SMILES string.

T1 sequence (Q92633 whole entry): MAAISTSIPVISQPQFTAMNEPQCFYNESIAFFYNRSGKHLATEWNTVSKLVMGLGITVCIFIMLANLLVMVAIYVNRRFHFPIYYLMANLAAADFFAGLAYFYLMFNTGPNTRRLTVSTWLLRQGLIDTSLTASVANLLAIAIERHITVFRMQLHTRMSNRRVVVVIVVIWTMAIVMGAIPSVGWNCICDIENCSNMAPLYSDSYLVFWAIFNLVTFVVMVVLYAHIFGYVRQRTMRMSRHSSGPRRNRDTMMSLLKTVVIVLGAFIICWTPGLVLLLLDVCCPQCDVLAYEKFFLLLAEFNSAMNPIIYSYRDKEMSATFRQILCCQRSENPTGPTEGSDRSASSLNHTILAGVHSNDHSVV

The experiment addresses T1, human LPA1 (Homo sapiens, UniProt Q92633).
T1 construct: expressed in transfected cells; host or cells: Chinese hamster ovary (CHO) cells
The experiment is described as follows: LPA1 functional antagonist assay (LPA-induced calcium flux). Type of experiment: cell-based. Conditions: read-out: hLPA1 IC50. The essentials: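 CHO cells overexpressing human LPA1, loaded with calcium dye 30 min at 37° C, were preincubated 20 min at room temperature with compound (0.08 nM–5 μM, 0.5% DMSO) in HBSS/20 mM HEPES/0.1% fatty acid-free BSA.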
Take `CN(Cc1ccccc1)C(=O)OCc1c(-c2ccc(O[C@H]3CCC[C@H](C(=O)O)C3)c(F)c2)nnn1C` [Example 26, (1S,3S)-3-(4-(5-(((benzyl(methyl)carbamoyl)oxy)methyl)-1-methyl-1H-1,2,3-triazol-4-yl)-2-fluorophenoxy)cyclohexane-1-carboxylic acid]: the IC50 came to 34 nM.

`CN(CC1CCC1)C(=O)OCc1c(-c2ccc(O[C@H]3CCC[C@H](C(=O)O)C3)c(F)c2)nnn1C` [Example 27, (1S,3S)-3-(4-(5-((((cyclobutylmethyl)(methyl)carbamoyl)oxy)methyl)-1-methyl-1H-1,2,3-triazol-4-yl)-2-fluorophenoxy)cyclohexane-1-carboxylic acid]: the IC50 came out at 14 nM.

`Cc1nc(-c2nnn(C)c2COC(=O)N(C)[C@H](C)C2CC2)ccc1O[C@H]1CCC[C@H](C(=O)O)C1` [Example 29, (1S,3S)-3-((6-(5-(((((R)-1-cyclopropylethyl)(methyl)carbamoyl)oxy)methyl)-1-methyl-1H-1,2,3-triazol-4-yl)-2-methylpyridin-3-yl)oxy)cyclohexane-1-carboxylic acid]: the IC50 was 41 nM. For `Cc1nc(-c2nnn(C)c2COC(=O)N(C)Cc2ccccc2)ccc1O[C@H]1CCC[C@H](C(=O)O)C1` [Example 30, (1S,3S)-3-((6-(5-(((benzyl(methyl)carbamoyl)oxy)methyl)-1-methyl-1H-1,2,3-triazol-4-yl)-2-methylpyridin-3-yl)oxy)cyclohexane-1-carboxylic acid], the IC50 worked out at 16 nM. In the case of `Cc1nc(-c2nnn(C)c2COC(=O)N(C)CCC(C)C)ccc1O[C@H]1CCC[C@H](C(=O)O)C1` [Example 34, (1S,3S)-3-((6-(5-(((isopentyl(methyl)carbamoyl)oxy)methyl)-1-methyl-1H-1,2,3-triazol-4-yl)-2-methylpyridin-3-yl)oxy)cyclohexane-1-carboxylic acid], the IC50 amounted to 16 nM. On to `Cc1nc(-c2nnn(C)c2COC(=O)N(C)Cc2ccc(Cl)cc2)ccc1O[C@H]1CCC[C@H](C(=O)O)C1` [Example 35, (1S,3S)-3-((6-(5-((((4-chlorobenzyl)(methyl)carbamoyl)oxy)methyl)-1-methyl-1H-1,2,3-triazol-4-yl)-2-methylpyridin-3-yl)oxy)cyclohexane-1-carboxylic acid], for which the IC50 turned out to be 284 nM.

Regarding `Cc1cc(-c2nnn(C)c2COC(=O)N(C)[C@H](C)C2CC2)ccc1O[C@H]1CCC[C@H](C(=O)O)C1` [Example 36, (1S,3S)-3-(4-(5-(((((R)-1-cyclopropylethyl)(methyl)carbamoyl)oxy)methyl)-1-methyl-1H-1,2,3-triazol-4-yl)-2-methylphenoxy)cyclohexane-1-carboxylic acid], the IC50 is 6 nM.

For the compound `Cc1cc(-c2nnn(C)c2COC(=O)N(C)CC2CCC2)ccc1O[C@H]1CCC[C@H](C(=O)O)C1` [Example 37, (1S,3S)-3-(4-(5-((((cyclobutylmethyl)(methyl)carbamoyl)oxy)methyl)-1-methyl-1H-1,2,3-triazol-4-yl)-2-methylphenoxy)cyclohexane-1-carboxylic acid], the IC50 was found to be 14 nM.

Take `Cc1cc(-c2nnn(C)c2COC(=O)N(C)Cc2ccccc2)ccc1O[C@H]1CCC[C@H](C(=O)O)C1` [Example 38, (1S,3S)-3-(4-(5-(((benzyl(methyl)carbamoyl)oxy)methyl)-1-methyl-1H-1,2,3-triazol-4-yl)-2-methylphenoxy)cyclohexane-1-carboxylic acid]: the IC50 was 32 nM. Regarding `CCCCN(C)C(=O)OCc1c(-c2ccc(O[C@H]3CCC[C@H](C(=O)O)C3)c(C)c2)nnn1C` [Example 40, (1S,3S)-3-(4-(5-(((butyl(methyl)carbamoyl)oxy)methyl)-1-methyl-1H-1,2,3-triazol-4-yl)-2-methylphenoxy)cyclohexane-1-carboxylic acid], the IC50 was 28 nM.

(Values after patent US10576062B2, “Carbamoyloxymethyl triazole cyclohexyl acids as LPA antagonists” (Bristol-Myers Squibb Company, priority 2016, dated 2020).)
